Data: ChEMBL document CHEMBL1201862, “PubChem BioAssay data set” (2004)
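1) Cells in 96-well plates. 2) Compound, 48 h, 5 concentrations. 3) Linear interpolation between surrounding doses. 4) Unreached endpoint = highest concentration. GI50 is the concentration that inhibits growth by half.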 The source made the active and inactive calls. Cut-off read from the data, not from the text of the source: active = GI50 up to about 1.1 µM and inactive = higher. Where a SMILES comes first, the peptide text is derived from it.

Tests used:
Assay in all cases: inhibition of tumour cell growth, NCI panel, 48 h
HCT-116 = system: HCT-116
HL-60 = system: HL-60
SK-MEL-28 = system: SK-MEL-28
A498 = system: A498
MOLT-4 = system: MOLT-4
MDA-N = system: MDA-N
OVCAR-3 = system: OVCAR-3
TK-10 = system: TK-10
OVCAR-5 = system: OVCAR-5
786-0 = system: 786-0
SF-539 = system: SF-539
SK-MEL-5 = system: SK-MEL-5
Hs-578T = system: Hs-578T
A549 = system: A549
COLO 205 = system: COLO 205
MDA-MB-435 = system: MDA-MB-435
U-251 = system: U-251
M14 = system: M14
CAKI-1 = system: CAKI-1
NCI/ADR-RES = system: NCI/ADR-RES
T47D = system: T47D
SW-620 = system: SW-620
OVCAR-4 = system: OVCAR-4
SK-MEL-2 = system: SK-MEL-2
SR = system: SR
RPMI-8226 = system: RPMI-8226
PC-3 = system: PC-3
CCRF-CEM = system: CCRF-CEM
SNB-19 = system: SNB-19
EKVX = system: EKVX
UACC-257 = system: UACC-257
OVCAR-8 = system: OVCAR-8
NCI-H460 = system: NCI-H460
SK-OV-3 = system: SK-OV-3
UO-31 = system: UO-31
NCI-H522 = system: NCI-H522
ACHN = system: ACHN
DU-145 = system: DU-145
MCF7 = system: MCF7
SNB-75 = system: SNB-75
SF-295 = system: SF-295
HCT-15 = system: HCT-15
SN12C = system: SN12C
MDA-MB-231 = system: MDA-MB-231
HT-29 = system: HT-29
K562 = system: K562
KM12 = system: KM12
SF-268 = system: SF-268
NCI-H23 = system: NCI-H23
LOX IMVI = system: LOX IMVI
HOP-62 = system: HOP-62
BT-549 = system: BT-549
IGROV-1 = system: IGROV-1
UACC-62 = system: UACC-62
NCI-H226 = system: NCI-H226
Malme-3M = system: Malme-3M
HOP-92 = system: HOP-92

Structure (SMILES): N/C(=N\c1c([N+](=O)[O-])cnc2ccccc12)N1CCOCC1
- GI50 (HCT-116): > 100 µM (inactive)
- GI50 (HL-60): > 100 µM (inactive)
- GI50 (SK-MEL-28): > 100 µM (inactive)
- GI50 (A498): > 100 µM (inactive)
- GI50 (MOLT-4): > 100 µM (inactive)
- GI50 (MDA-N): > 100 µM (inactive)
- GI50 (OVCAR-3): > 100 µM (inactive)
- GI50 (TK-10): > 100 µM (inactive)
- GI50 (OVCAR-5): > 100 µM (inactive)
- GI50 (786-0): > 100 µM (inactive)
- GI50 (SF-539): > 100 µM (inactive)
- GI50 (SK-MEL-5): > 100 µM (inactive)
- GI50 (Hs-578T): > 100 µM (inactive)
- GI50 (A549): > 100 µM (inactive)
- GI50 (COLO 205): > 100 µM (inactive)
- GI50 (MDA-MB-435): > 100 µM (inactive)
- GI50 (U-251): > 100 µM (inactive)
- GI50 (M14): > 100 µM (inactive)
- GI50 (CAKI-1): > 100 µM (inactive)
- GI50 (NCI/ADR-RES): 95.9 µM (inactive)
- GI50 (T47D): > 100 µM (inactive)
- GI50 (SW-620): > 100 µM (inactive)
- GI50 (OVCAR-4): > 100 µM (inactive)
- GI50 (SK-MEL-2): > 100 µM (inactive)
- GI50 (SR): > 100 µM (inactive)
- GI50 (RPMI-8226): > 100 µM (inactive)
- GI50 (PC-3): > 100 µM (inactive)
- GI50 (CCRF-CEM): > 100 µM (inactive)
- GI50 (SNB-19): > 100 µM (inactive)
- GI50 (EKVX): > 100 µM (inactive)
- GI50 (UACC-257): > 10 µM (inactive)
- GI50 (OVCAR-8): > 100 µM (inactive)
- GI50 (NCI-H460): > 100 µM (inactive)
- GI50 (SK-OV-3): > 100 µM (inactive)
- GI50 (UO-31): > 100 µM (inactive)
- GI50 (NCI-H522): > 100 µM (inactive)
- GI50 (ACHN): > 100 µM (inactive)
- GI50 (DU-145): > 100 µM (inactive)
- GI50 (MCF7): > 100 µM (inactive)
- GI50 (SNB-75): > 100 µM (inactive)
- GI50 (SF-295): 86.9 µM (inactive)
- GI50 (HCT-15): > 100 µM
- GI50 (SN12C): > 100 µM (inactive)
- GI50 (MDA-MB-231): > 100 µM (inactive)
- GI50 (HT-29): > 100 µM (inactive)
- GI50 (K562): > 100 µM (inactive)
- GI50 (KM12): > 100 µM (inactive)
- GI50 (SF-268): > 100 µM (inactive)
- GI50 (NCI-H23): > 100 µM (inactive)
- GI50 (LOX IMVI): > 100 µM (inactive)
- GI50 (HOP-62): > 100 µM (inactive)
- GI50 (BT-549): > 100 µM (inactive)
- GI50 (IGROV-1): > 100 µM (inactive)
- GI50 (UACC-62): > 100 µM (inactive)
- GI50 (NCI-H226): > 100 µM (inactive)

Structure (SMILES): CCC(C)C(NC(=O)C1CCCN1C(=O)C(CC(C)C)NC(=O)C(CC(C)C)NC(=O)C(N)CC(C)C)C(=O)NC(C(=O)NCC(=O)NC(CC(N)=O)C(=O)NC(CC(C)C)C(=O)NC(CC(C)C)C(=O)NC(CC(C)C)C(N)=O)C(C)C (centres undefined) (H-LLLPIVGNLLL-NH2; configuration not given here)
- GI50 (HCT-116): > 50 µM (inactive)
- GI50 (HL-60): > 50 µM (inactive)
- GI50 (SK-MEL-28): > 50 µM (inactive)
- GI50 (A498): > 50 µM (inactive)
- GI50 (MOLT-4): > 50 µM (inactive)
- GI50 (MDA-N): > 50 µM (inactive)
- GI50 (OVCAR-3): > 50 µM (inactive)
- GI50 (TK-10): > 50 µM (inactive)
- GI50 (OVCAR-5): > 50 µM (inactive)
- GI50 (786-0): > 50 µM (inactive)
- GI50 (SF-539): > 50 µM (inactive)
- GI50 (SK-MEL-5): > 50 µM (inactive)
- GI50 (Hs-578T): > 50 µM (inactive)
- GI50 (Malme-3M): > 50 µM (inactive)
- GI50 (A549): > 50 µM (inactive)
- GI50 (COLO 205): > 50 µM (inactive)
- GI50 (MDA-MB-435): > 50 µM (inactive)
- GI50 (U-251): > 50 µM (inactive)
- GI50 (M14): > 50 µM (inactive)
- GI50 (CAKI-1): > 50 µM (inactive)
- GI50 (NCI/ADR-RES): > 50 µM (inactive)
- GI50 (T47D): > 50 µM (inactive)
- GI50 (SW-620): > 50 µM (inactive)
- GI50 (OVCAR-4): > 50 µM (inactive)
- GI50 (SK-MEL-2): > 50 µM (inactive)
- GI50 (SR): > 50 µM (inactive)
- GI50 (RPMI-8226): > 50 µM (inactive)
- GI50 (PC-3): > 50 µM (inactive)
- GI50 (CCRF-CEM): > 50 µM (inactive)
- GI50 (SNB-19): > 50 µM (inactive)
- GI50 (EKVX): > 50 µM (inactive)
- GI50 (UACC-257): > 50 µM (inactive)
- GI50 (OVCAR-8): > 50 µM (inactive)
- GI50 (SK-OV-3): > 50 µM (inactive)
- GI50 (UO-31): > 50 µM (inactive)
- GI50 (NCI-H522): > 50 µM (inactive)
- GI50 (ACHN): > 50 µM (inactive)
- GI50 (DU-145): > 50 µM (inactive)
- GI50 (HOP-92): > 50 µM (inactive)
- GI50 (MCF7): > 50 µM (inactive)
- GI50 (SF-295): > 50 µM (inactive)
- GI50 (HCT-15): > 50 µM
- GI50 (SN12C): > 50 µM (inactive)
- GI50 (MDA-MB-231): > 50 µM (inactive)
- GI50 (HT-29): > 50 µM (inactive)
- GI50 (KM12): > 50 µM (inactive)
- GI50 (SF-268): > 50 µM (inactive)
- GI50 (NCI-H23): > 50 µM (inactive)
- GI50 (LOX IMVI): > 50 µM (inactive)
- GI50 (HOP-62): > 50 µM (inactive)
- GI50 (BT-549): > 50 µM (inactive)
- GI50 (IGROV-1): > 50 µM (inactive)
- GI50 (UACC-62): > 50 µM (inactive)
- GI50 (NCI-H226): > 50 µM (inactive)
